A value given as a limit tells only on which side of the number the result lay.

In one test the target is T1, RORγ-LBD (Homo sapiens, UniProt P51449).
T1 construct: made in house; host or cells: SF9 cells (baculovirus)
T1 sequence (P51449 269-508 limits assumed): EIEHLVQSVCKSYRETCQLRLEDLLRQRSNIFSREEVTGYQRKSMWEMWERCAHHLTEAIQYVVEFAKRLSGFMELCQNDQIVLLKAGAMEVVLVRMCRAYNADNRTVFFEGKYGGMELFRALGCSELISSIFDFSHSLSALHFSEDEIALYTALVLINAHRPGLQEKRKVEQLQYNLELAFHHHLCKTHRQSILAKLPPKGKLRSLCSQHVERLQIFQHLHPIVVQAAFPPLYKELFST
As to the kind of experiment: RORγ-Ligand Binding Domain (LBD) TR-FRET Assay.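 As to TR-FRET Assay Max Response: 665/615 nm ratio relative to signal without ursolic acid or compound set at 100.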 The class given is biochemical. Put shortly: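 Lysate from SF9 cells expressing His-RORγ-LBD is diluted to about 3 nM final in 50 mM Tris pH 7.0 assay buffer. A biotin-tagged SRC1 LXXLL peptide goes in at 200 nM final, plus ursolic acid at 2 μM final. Test compounds carry 1% DMSO final; signal read by TR-FRET.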

The target in another test is T2, Gal4-RORγ-LBD (Homo sapiens, UniProt P51449).
T2 construct: expressed in transfected cells; host or cells: HEK-293 cells (pcDNA3.1neo plasmid)
T2 sequence (P51449 269-508 limits assumed): T1 sequence (P51449 269-508 limits assumed)
As to the kind of experiment: Gal4-RORγ Luciferase Reporter Assay in HEK-293T Cells. The class given is cell-based. The following applies: HEK-293 cells. Put shortly: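 In transfected HEK-293 cells (Gal4-RORγ-LBD, Gal4-luciferase), test agents with 2 μM ursolic acid were incubated overnight at 37 °C before luminescent detection. Values are relative to the ursolic-acid-free, compound-free signal (100).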

The mark [1] stands for this setting: luciferase reporter, with 2 μM ursolic acid.

On to `CC(=O)N1CC(C[C@H]2CN(S(=O)(=O)c3cccc(C(F)(F)F)c3)c3cc(-c4cc(F)cc(OC(F)F)c4)ccc3O2)C1` [Compound 61, (S)-1-(3-((6-(3-(difluoromethoxy)-5-fluorophenyl)-4-((3-(trifluoromethyl)phenyl)sulfonyl)-3,4-dihydro-2H-benzo[b][1,4]oxazin-2-yl)methyl)azetidin-1-yl)ethan-1-one], for which, on RORγ-LBD, the EC50 was < 500 nM and the “TR-FRET Assay Max Response” value is given as “*** (The symbol “***” indicates a value in the range of greater than 150 to 200)”. Moreover, on Gal4-RORγ-LBD (2 μM ursolic acid), the EC50 was < 500 nM and the “Gal4-RORγ Assay Max Response” value is “** (The symbol “**” indicates a value in the range of greater than 90 to 150)”.

In the case of `O=C(O)CC[C@H]1CN(S(=O)(=O)c2cccc(C(F)(F)F)c2)c2cc(-c3cc(F)cc(F)c3Cl)c(Cl)cc2O1` [Compound 22G, (S)-3-(7-chloro-6-(2-chloro-3,5-difluorophenyl)-4-((3-(trifluoromethyl)phenyl)sulfonyl)-3,4-dihydro-2H-benzo[b][1,4]-oxazin-2-yl)propanoic acid], on RORγ-LBD, the EC50 was < 500 nM and the “TR-FRET Assay Max Response” value is “*** (The symbol “***” indicates a value in the range of greater than 150 to 200)”. For the same compound, on Gal4-RORγ-LBD (setting [1]), the EC50 is < 500 nM and the “Gal4-RORγ Assay Max Response” value is recorded as “** (The symbol “**” indicates a value in the range of greater than 90 to 150)”.

Regarding `O=C(O)C1(C[C@H]2CN(S(=O)(=O)c3cccc(C(F)(F)F)c3)c3cc(-c4cccc(C(F)(F)F)n4)ccc3O2)CCC1` [Compound 32BL, (S)-l-((4-((3-(trifluoromethyl)-phenyl)sulfonyl)-6-(6-(trifluoro-methyl)pyridin-2-yl)-3,4-dihydro-2H-benzo[b][1,4]oxazin-2-yl)methyl)cyclobutane-1-carboxylic acid], at RORγ-LBD, the EC50 is < 500 nM and the “TR-FRET Assay Max Response” value is “** (The symbol “**” indicates a value in the range of greater than 90 to 150)”. Besides, at Gal4-RORγ-LBD (2 μM ursolic acid), the EC50 was < 500 nM and the “Gal4-RORγ Assay Max Response” value was “* (The symbol “*” indicates a value in the range of 25 to 90)”.

As to `CC(C)(C[C@H]1CN(S(=O)(=O)c2cccc(C(F)(F)F)c2)c2cc(-c3cccc(Cl)c3)ccc2O1)C(=O)O` [Compound 32W, (S)-3-(6-(3-chlorophenyl)-4-((3-(trifluoromethyl)phenyl)sulfonyl)-3,4-dihydro-2H-benzo[b][1,4]-oxazin-2-yl)-2,2-dimethyl-propanoic acid], at RORγ-LBD, the EC50 was < 500 nM and the “TR-FRET Assay Max Response” value is reported as “*** (The symbol “***” indicates a value in the range of greater than 150 to 200)”. Moreover, on Gal4-RORγ-LBD (2 μM ursolic acid), the 50% effective concentration (EC50) was < 500 nM and the “Gal4-RORγ Assay Max Response” value is on record as “** (The symbol “**” indicates a value in the range of greater than 90 to 150)”.

For `NS(=O)(=O)CCC(=O)NC[C@H]1CN(S(=O)(=O)c2cccc(C(F)(F)F)c2)c2cc(-c3cccc(C(F)(F)F)n3)ccc2O1` [Compound 30BG, (S)-3-sulfamoyl-N-((4-((3-(trifluoromethyl)phenyl)-sulfonyl)-6-(6-(trifluoro-methyl)pyridin-2-yl)-3,4-dihydro-2H-benzo[b][1,4]-oxazin-2-yl)methyl)-propanamide], on RORγ-LBD, the EC50 was < 500 nM and the “TR-FRET Assay Max Response” value was “*** (The symbol “***” indicates a value in the range of greater than 150 to 200)”. At Gal4-RORγ-LBD (setting [1]), the EC50 was in the range of 500 to 5000 nM and the “Gal4-RORγ Assay Max Response” value was “** (The symbol “**” indicates a value in the range of greater than 90 to 150)”.

On to `O=C(O)CC[C@H]1CN(S(=O)(=O)c2cccc(C(F)(F)F)c2)c2cc(-c3cccnc3Cl)ccc2O1` [Compound 2BE, (S)-3-(6-(2-chloropyridin-3-yl)-4-((3-(trifluoromethyl)phenyl)-sulfonyl)-3,4-dihydro-2H-benzo[b][1,4]oxazin-2-yl)propanoic acid], for which, at RORγ-LBD, the EC50 was < 500 nM and the “TR-FRET Assay Max Response” value is given as “**** (The symbol “****” indicates a value greater than 200)”. In addition, at Gal4-RORγ-LBD (setting [1]), the EC50 fell in the range of 500 to 5000 nM and the “Gal4-RORγ Assay Max Response” value is given as “** (The symbol “**” indicates a value in the range of greater than 90 to 150)”.

For the compound `CC(C)(O)CC(=O)NC[C@H]1CN(S(=O)(=O)c2cccc(C(F)(F)F)c2)c2cc(-c3cccc(F)c3Cl)ccc2O1` [Compound 30CG, (S)-N-((6-(2-chloro-3-fluoro-phenyl)-4-((3-(trifluoromethyl)-phenyl)sulfonyl)-3,4-dihydro-2H-benzo[b][1,4]oxazin-2-yl)methyl)-3-hydroxy-3-methylbutanamide], on RORγ-LBD, the EC50 is < 500 nM and the “TR-FRET Assay Max Response” value is reported as “*** (The symbol “***” indicates a value in the range of greater than 150 to 200)”. At Gal4-RORγ-LBD (2 μM ursolic acid), the EC50 was in the range of 500 to 5000 nM and the “Gal4-RORγ Assay Max Response” value was “* (The symbol “*” indicates a value in the range of 25 to 90)”.

For the compound `CNS(=O)(=O)NC[C@H]1CN(S(=O)(=O)c2cccc(C(F)(F)F)c2)c2cc(-c3cc(F)ccc3F)ccc2O1` [Compound 44, ([[(2S)-6-(2,5-difluorophenyl)-4-[[3-(trifluoromethyl)benzene]sulfonyl]-3,4-dihydro-2H-1,4-benzoxazin-2-yl]methyl]sulfamoyl)(methyl)amine], at RORγ-LBD, the EC50 was < 500 nM and the “TR-FRET Assay Max Response” value is recorded as “**** (The symbol “****” indicates a value greater than 200)”. Besides, on Gal4-RORγ-LBD (setting [1]), the EC50 is < 500 nM and the “Gal4-RORγ Assay Max Response” value is given as “** (The symbol “**” indicates a value in the range of greater than 90 to 150)”.

As for `C=CCC(=O)NC[C@H]1CN(S(=O)(=O)c2cccc(C(F)(F)F)c2)c2cc(-c3cc(F)cc(OC(F)F)c3)ccc2O1` [Compound 30DI, (S)-N-((6-(3-(difluoromethoxy)-5-fluorophenyl)-4-((3-(trifluoro-methyl)phenyl)sulfonyl)-3,4-dihydro-2H-benzo[b][1,4]-oxazin-2-yl)methyl)but-3-enamide], on RORγ-LBD, the EC50 is < 500 nM and the “TR-FRET Assay Max Response” value is on record as “*** (The symbol “***” indicates a value in the range of greater than 150 to 200)”. Also, on Gal4-RORγ-LBD (2 μM ursolic acid), the half-maximal effective concentration (EC50) is < 500 nM and the “Gal4-RORγ Assay Max Response” value is recorded as “* (The symbol “*” indicates a value in the range of 25 to 90)”.

For the compound `COc1cccc(-c2ccc3c(c2)N(S(=O)(=O)c2cccc(C(F)(F)F)c2)C[C@H](CCNC(=O)C(C)(C)O)O3)c1` [Compound 30E, (S)-2-hydroxy-N-(2-(6-(3-methoxyphenyl)-4-((3-(trifluoromethyl)phenyl)sulfonyl)-3,4-dihydro-2H-benzo[6][1,4]oxazin-2-yl)ethyl)-2-methylpropanamide], on RORγ-LBD, the EC50 is < 500 nM and the “TR-FRET Assay Max Response” value was “**** (The symbol “****” indicates a value greater than 200)”. For the same compound, at Gal4-RORγ-LBD (setting [1]), the EC50 was < 500 nM and the “Gal4-RORγ Assay Max Response” value is “** (The symbol “**” indicates a value in the range of greater than 90 to 150)”.

With `COc1c(Cl)cccc1-c1ccc2c(c1)N(S(=O)(=O)c1cccc(C(F)(F)F)c1)C[C@H](CCC(=O)O)O2` [Compound 2AC, (S)-3-(6-(3-chloro-2-methoxy-phenyl)-4-((3-(trifluoromethyl)-phenyl)sulfonyl)-3,4-dihydro-2H-benzo[b][1,4]oxazin-2-yl)propanoic acid], on RORγ-LBD, the EC50 is < 500 nM and the “TR-FRET Assay Max Response” value was “**** (The symbol “****” indicates a value greater than 200)”. For the same compound, at Gal4-RORγ-LBD (setting [1]), the EC50 was < 500 nM and the “Gal4-RORγ Assay Max Response” value was “*** (The symbol “***” indicates a value in the range of greater than 150 to 200)”.

`Cn1cc(C(=O)NC[C@H]2CN(S(=O)(=O)c3cccc(C(F)(F)F)c3)c3cc(-c4cccc(F)c4Cl)ccc3O2)cn1` [Compound 30CD, (S)-N-((6-(2-chloro-3-fluoro-phenyl)-4-((3-(trifluoromethyl)-phenyl)sulfonyl)-3,4-dihydro-2H-benzo[b][1,4]oxazin-2-yl)methyl)-1-methyl-1H-pyrazole-4-carboxamide]: at RORγ-LBD, the EC50 was < 500 nM and the “TR-FRET Assay Max Response” value is listed as “*** (The symbol “***” indicates a value in the range of greater than 150 to 200)”. Moreover, on Gal4-RORγ-LBD (2 μM ursolic acid), the EC50 is < 500 nM and the “Gal4-RORγ Assay Max Response” value is “** (The symbol “**” indicates a value in the range of greater than 90 to 150)”.

Take `CN(C)c1ccnc(-c2ccc3c(c2)N(S(=O)(=O)c2cccc(C(F)(F)F)c2)C[C@H](CCC(=O)O)O3)n1` [Compound 4AU, (S)-3-(6-(4-(dimethylamino)-pyrimidin-2-yl)-4-((3-(trifluoromethyl)phenyl)-sulfonyl)-3,4-dihydro-2H-benzo[b][1,4]oxazin-2-yl)propanoic acid]: at RORγ-LBD, the EC50 was < 500 nM and the “TR-FRET Assay Max Response” value was “**** (The symbol “****” indicates a value greater than 200)”. Further, at Gal4-RORγ-LBD (setting [1]), the EC50 was 500 to 5000 nM and the “Gal4-RORγ Assay Max Response” value is recorded as “** (The symbol “**” indicates a value in the range of greater than 90 to 150)”.

Regarding `N#Cc1cccc(-c2ccc3c(c2)N(S(=O)(=O)c2cccc(C(F)(F)F)c2)C[C@H](CCC(=O)O)O3)c1` [Compound 2AT, (S)-3-(6-(3-cyanophenyl)-4-((3-(trifluoromethyl)phenyl)-sulfonyl)-3,4-dihydro-2H-benzo[b][1,4]oxazin-2-yl)propanoic acid], on RORγ-LBD, the EC50 is < 500 nM and the “TR-FRET Assay Max Response” value is recorded as “**** (The symbol “****” indicates a value greater than 200)”. At Gal4-RORγ-LBD (setting [1]), the concentration giving a half-maximal response (EC50) was 500 to 5000 nM and the “Gal4-RORγ Assay Max Response” value was “** (The symbol “**” indicates a value in the range of greater than 90 to 150)”.

For the origin of these results see US10611740B2, “Aryl dihydro-2H-benzo[b][1,4]oxazine sulfonamide and related compounds for use as agonists of RORγ and the treatment of disease” (Lycera Corporation, priority 2015, dated 2020).
